Values belong to the compound of their own block, whether it stands above or below them.
Target: T1, human capsaicin receptor (Homo sapiens, UniProt Q8NER1)
T1 construct: pBK-CMV expression construct encoding the full length human capsaicin receptor; expressed in transfected cells
Test: Calcium mobilization assay, determination of antagonist activity (Example 6)
Format: cell-based
Details: Table II
Experimental: A cDNA encoding full length human capsaicin receptor (SEQ ID NO: 1, 2 or 3 of U.S. Pat. No. 6,482,611) was subcloned in the plasmid pBK-CMV (Stratagene, La Jolla, Calif.) for recombinant expression in mammalian cells.
Human embryonic kidney (HEK293) cells were transfected with the pBK-CMV expression construct encoding the full length human capsaicin receptor using standard methods. The transfected cells were selected for two weeks in media containing G418 (400 μg/ml) to obtain a pool of stably transfected cells. Independent clones were isolated from this pool by limiting dilution to obtain clonal stable cell lines for use in subsequent experiments.
This Example illustrates representative calcium mobilization assays for use in evaluating test compounds for agonist and antagonist activity.
Cells transfected with expression plasmids (as described in Example 4) and thereby expressing human capsaicin receptor are seeded and grown to 70-90% confluency in FALCON black-walled, clear-bottomed 96-well plates (#3904, BECTON-DICKINSON, Franklin Lakes, N.J.). The culture medium is emptied from the 96 well plates and FLUO-3 AM calcium sensitive dye (Molecular Probes, Eugene, Oreg.) is added to each well (dye solution: 1 mg FLUO-3 AM, 440 μL DMSO and 440 pi 20% pluronic acid in DMSO, diluted 1:250 in Krebs-Ringer HEPES (KRH) buffer (25 mM HEPES, 5 mM KCl, 0.96 mM NaH2PO4, 1 mM MgSO4, 2 mM CaCl2, 5 mM glucose, 1 mM probenecid, pH 7.4), 50 μl diluted solution per well). Plates are covered with aluminum foil and incubated at 37° C. for 1-2 hours in an environment containing 5% CO2. After the incubation, the dye is emptied from the plates, and the cells are washed once with KRH buffer, and resuspended in KRH buffer.
To measure the ability of a test compound to agonize or antagonize a calcium mobilization response in cells expressing capsaicin receptors to capsaicin or other vanilloid agonist, the EC50 of the agonist capsaicin is first determined. An additional 20 μl of KRH buffer and 1 μl DMSO is added to each well of cells, prepared as described above. 100 μl capsaicin in KRH buffer is automatically transferred by the FLIPR instrument to each well. Capsaicin-induced calcium mobilization is monitored using either FLUOROSKAN ASCENT (Labsystems; Franklin, Mass.) or FLIPR (fluorometric imaging plate reader system; Molecular Devices, Sunnyvale, Calif.) instruments. Data obtained between 30 and 60 seconds after agonist application are used to generate an 8-point concentration response curve, with final capsaicin concentrations of 1 nM to 3 μM. KALEIDAGRAPH software (Synergy Software, Reading, Pa.) is used to fit the data to the equation: y=a*(1/(1+(b/x)^c)) to determine the 50% excitatory concentration (EC50) for the response. In this equation, y is the maximum fluorescence signal, x is the concentration of the agonist or antagonist (in this case, capsaicin), a is the Emax, b corresponds to the EC50 value and c is the Hill coefficient. Determination of Agonist Activity
Test compounds are dissolved in DMSO, diluted in 20 μl KRH buffer so that the final concentration of test compounds in the assay well is between 1 μM and 5 μM, and added to cells prepared as described above. The 96 well plates containing prepared cells and test compounds are incubated in the dark, at room temperature for 0.5 to 6 hours. It is important that the incubation not continue beyond 6 hours. Just prior to determining the fluorescence response, 100 pi capsaicin in KRH buffer at twice the EC50 concentration determined as described above is automatically added by the FLIPR instrument to each well of the 96 well plate for a final sample volume of 200 μl and a final capsaicin concentration equal to the EC50. The final concentration of test compounds in the assay wells is between 1 μM and 5 μM. […]

[1] = determined as described in Example 6 (antagonist activity), "*" = 1 micromolar or less
[2] = IC50 determined as described in Example 6 (antagonist activity, calcium mobilization)
[3] = IC50 determined as described in Example 6
[4] = determined as described in Example 6 (calcium mobilization, antagonist activity)

T1 sequence (Q8NER1 whole entry): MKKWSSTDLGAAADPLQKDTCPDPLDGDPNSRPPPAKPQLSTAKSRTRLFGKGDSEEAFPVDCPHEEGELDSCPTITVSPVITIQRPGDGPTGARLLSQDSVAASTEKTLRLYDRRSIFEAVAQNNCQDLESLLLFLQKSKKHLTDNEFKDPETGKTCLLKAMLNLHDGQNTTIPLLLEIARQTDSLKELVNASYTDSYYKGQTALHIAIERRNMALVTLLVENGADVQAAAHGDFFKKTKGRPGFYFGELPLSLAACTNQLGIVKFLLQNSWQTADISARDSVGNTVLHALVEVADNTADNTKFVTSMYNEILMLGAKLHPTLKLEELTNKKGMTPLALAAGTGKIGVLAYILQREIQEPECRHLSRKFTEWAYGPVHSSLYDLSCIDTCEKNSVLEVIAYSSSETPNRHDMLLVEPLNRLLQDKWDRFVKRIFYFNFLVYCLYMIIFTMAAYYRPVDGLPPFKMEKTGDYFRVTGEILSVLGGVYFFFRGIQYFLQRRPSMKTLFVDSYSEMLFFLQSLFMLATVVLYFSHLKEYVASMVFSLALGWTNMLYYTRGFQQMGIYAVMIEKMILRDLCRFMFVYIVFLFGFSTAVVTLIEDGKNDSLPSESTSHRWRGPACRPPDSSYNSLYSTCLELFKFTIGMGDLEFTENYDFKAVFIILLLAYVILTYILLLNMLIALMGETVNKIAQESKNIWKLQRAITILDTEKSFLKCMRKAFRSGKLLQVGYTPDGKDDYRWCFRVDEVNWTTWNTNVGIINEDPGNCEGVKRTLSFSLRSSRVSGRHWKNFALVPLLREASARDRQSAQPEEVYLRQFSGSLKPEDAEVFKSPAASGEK

IC50 [1]: ≤ 1000 nM
Structure (SMILES): C[C@@H]1CN(c2ncccc2Cl)CCN1c1cc(-c2cncc(Cl)c2)nc(N2CCCC2)n1 [Example 806, 4-(5-chloropyridin-3-yl)-6-[(2R)-4-(3-chloropyridin-2-yl)-2-methylpiperazin-1-yl]-2-pyrrolidin-1-ylpyrimidine]

IC50 [1]: ≤ 1000 nM
Structure (SMILES): Cc1cc(-c2cc(N3CCN(c4ncccc4C(F)(F)F)C[C@H]3C)nc(N3CCC3C)n2)ccc1F (stereo partly drawn) [Example 786, 4-(4-fluoro-3-methyiphenyl)-2-(2-methylazetidin-1-yl)-6-{(2R)-2-methyl-4-[3-(trifluoromethyl)pyridin-2-yl]piperazin-1-yl}pyrimidine]

IC50 [1]: ≤ 1000 nM
Structure (SMILES): O=C(O)C1CCCCN1c1nc(-c2ccc(F)c(Cl)c2)cc(N2CCN(c3ncccc3C(F)(F)F)CC2)n1 (stereo not drawn) [Example 832, 1-(4-(3-chloro-4-fluorophenyl)-6-{4-[3-(trifluoromethyl)pyridin-2-yl]piperazin-1-yl}pyrimidin-2-yl)piperidine-2-carboxylic acid]

IC50 [2]: ≤ 1000 nM
Structure (SMILES): C[C@@H]1CN(c2ncccc2F)CCN1c1cc(-c2ccc(F)c(Cl)c2)nc(N2CCOC[C@@H]2C)n1 [Example 1004, (3S)-4-{4-(3-chloro-4-fluorophenyl)-6-[(2R)-4-(3-fluoropyridin-2-yl)-2-methylpiperaztn-1-yl]pyrimidin-2-yl}-3-methylmorpholine]

IC50 [1]: ≤ 1000 nM
Structure (SMILES): CC1CCCN1c1nc(-c2ccc(F)cc2)cc(N2CCN(c3ncccc3Cl)C[C@H]2C)n1 (stereo in doubt) [Example 842, 4-[4-(3-chloropyridin-2-yl)-2-methylpiperazin-1-yl]-6-(4-fluorophenyl)-2-(2-methylpyrrolidin-1-yl)pyrimidine]

IC50 [2]: ≤ 1000 nM
Structure (SMILES): C[C@H]1CN(c2ncccc2Cl)CCN1c1cc(-c2ccc(F)c(Cl)c2)nc(N2CCOC[C@@H]2C)n1 [Example 1005, (3S)-4-{4-(3-chloro-4-fluorophenyl)-6-[(2S)-4-(3-chloropyridin-2-yl)-2-methylpiperazin-1-yl]pyrimidin-2-yl}-3-methylmorpholine]

IC50 [3]: ≤ 1000 nM
Structure (SMILES): NC1CCN(c2nc(-c3ccc(F)c(Cl)c3)cc(N3CCN(c4ncccc4C(F)(F)F)CC3)n2)CC1 [Example 569, 1-(4-(3-chloro-4-fluorophenyl)-6-{4-[3-(trifluoromethyl)pyridin-2-yl]piperazin-1-yl}pyrimidin-2-yl)piperidin-4-amine]

IC50 [3]: ≤ 1000 nM
Structure (SMILES): Cc1cc(-c2cc(N3CCN(c4ncccc4Cl)C[C@H]3C)nc(N3CCOCC3)n2)ccc1F [Example 498, 4-[4-[(2R)-4-(3-chloropyridin-2-yl)-2-methylpiperazin-1-yl]-6-(4-fluoro-3-methytphenyl)pyrimidin-2-yl]morpholine]

IC50 [1]: ≤ 1000 nM
Structure (SMILES): CC(=O)c1ccc(-c2cc(N3CCN(c4ncccc4Cl)C[C@H]3C)nc(N3CCCC3C)n2)cc1 (stereo partly drawn) [Example 857, 1-{4-[6-[4-(3-chloropyridin-2-yl)-2-methylpiperazin-1-yl]-2-(2-methylpyrrolidin-1-yl)pyrimidin-4-yl]phenyl}ethanone]

IC50 [2]: ≤ 1000 nM
Structure (SMILES): Cc1ccc(-c2cc(N3CCN(c4ncccc4Cl)C[C@H]3C)nc(N3CCOCC3)n2)cc1Cl [Example 998, 4-{4-(3-chloro-4-methylphenyl)-6-[(2R)-4-(3-chloropyridin-2-yl)-2-methylpiperazin-1-yl]pyrimidin-2-yl}morpholine]

IC50 [1]: ≤ 1000 nM
Structure (SMILES): Cc1ccc(-c2cc(N3CCN(c4ncccc4Cl)C[C@H]3C)nc(N3CCCC3)n2)cc1F [Example 802]

IC50 [1]: ≤ 1000 nM
Structure (SMILES): COc1ccc(-c2cc(N3CCN(c4ncccc4Cl)C[C@H]3C)nc(N3CCCC3)n2)cc1C [Example 809, 4-[(2R)-4-(3-chloropyridin-2-yl)-2-methylpiperazin-1-yl]-6-(4-methoxy-3-methylphenyl)-2-pyrrolidin-1-ylpyrimidine]

IC50 [3]: ≤ 1000 nM
Structure (SMILES): NC1CCN(c2nc(-c3ccc(F)c(Cl)c3)cc(N3CCN(c4ncccc4C(F)(F)F)CC3)n2)C1 (stereo not drawn) [Example 568, 1-(4-(3-chloro-4-fluorophenyl)-6-{4-[3-(trifluoromethyl)pyridin-2-yl]piperazin-1-yl}pyrimidin-2-yl)pyrrolidin-3-amine]

IC50 [1]: ≤ 1000 nM
Structure (SMILES): CC(=O)c1nc(-c2ccc(F)c(F)c2)cc(N2CCN(c3ncccc3C(F)(F)F)CC2)n1 [Example 862, 1-(4-(3,4-difluorophenyl)-6-{4-[3-(trifluoromethyl)pyridin-2-yl]piperazin-1-yl}pyrimidin-2-yl)ethanone]

IC50 [4]: ≤ 1000 nM
Structure (SMILES): Cc1cc(-c2cc(N3CCN(c4ncccc4Cl)CC3)nc(N3CCCCC3)n2)ccc1F [Example 717, 4-[4-(3-chloropyridin-2-yl)piperazin-1-yl]-6-(4-fluoro-3-methylphenyl)-2-piperidin-1-ylpyrimidine]

IC50 [2]: ≤ 1000 nM
Structure (SMILES): Cc1ccc(-c2cc(N3CCN(c4ncccc4Cl)C[C@H]3C)nc(N3CCC[C@H]3C)n2)cc1F [Example 979, 4-[(2R)-4-(3-chloropyridin-2-yl)-2-methylpiperazin-1-yl]-6-(3-fluoro-4-methylphenyl)-2-[(2R)-2-methylpyrrolidin-1-yl]pyrimidine]

IC50 [4]: ≤ 1000 nM
Structure (SMILES): CC1CCCN1c1nc(-c2ccc(F)c(F)c2)cc(N2CCN(c3ncccc3C(F)(F)F)CC2)n1 (stereo not drawn) [Example 704, 4-(3,4-difluorophenyl)-2-(2-methylpyrrolidin-1-yl)-6-{4-[3-(trifluoromethyl)pyridin-2-yl]piperazin-1-yl}pyrimidine]

IC50 [4]: ≤ 1000 nM
Structure (SMILES): C[C@@H]1CN(c2ncccc2C(F)(F)F)CCN1c1cc(-c2ccc(F)c(Cl)c2)nc(N2CCCCC2)n1 [Example 765, 4-(3-chloro-4-fluorophenyl)-6-{(2R)-2-methyt-4-[3-(trifluoromethyl)pyridin-2-yl]piperazin-1-yl}-2-piperidin-1-ylpyrimidine]

IC50 [4]: ≤ 1000 nM
Structure (SMILES): Cc1cncc(-c2cc(N3CCN(c4ncccc4C(F)(F)F)CC3)nc(N3CCOCC3)n2)c1 [Example 631, 4-(4-(5-methylpyridin-3-yl)-6-{4-[3-(trifluoromethyl)pyridin-2-yl]piperazin-1-yl}pyrimidin-2-yl)morpholine]

IC50 [1]: ≤ 1000 nM
Structure (SMILES): CC(=O)c1ccc(-c2cc(N3CCN(c4ncccc4Cl)C[C@H]3C)nc(N3CCCC3)n2)cc1 [Example 856, 1-(4-{6-[(2R)-4-(3-chloropyridin-2-yl)-2-methylpiperazin-1-yl]-2-pyrrolidin-1-ylpyrimidin-4-yl)phenyl)ethanone]

IC50 [1]: ≤ 1000 nM
Structure (SMILES): C[C@@H]1CN(c2ncccc2Cl)CCN1c1cc(-c2ccc(C#N)cc2)nc(N2CCOCC2)n1 [Example 861, 4-{6-[(2R)-4-(3-chloropyridin-2-yl)-2-methylpiperazin-1-yl]-2-morpholin-4-ylpyrimidin-4-yl}benzonitrile]

IC50 [4]: ≤ 1000 nM
Structure (SMILES): CC(=N)N1CCN(c2nc(-c3ccc(F)c(C)c3)cc(N3CCN(c4ncccc4C(F)(F)F)CC3)n2)CC1 [Example 657, 1-[4-(4-(4-fluoro-3-methylphenyl)-6-{4-[3-(trifluoromethyl)pyridin-2-yl]piperazin-1-yl}pyrimidin-2-yl)piperazin-1-yl]ethanimine]

IC50 [4]: ≤ 1000 nM
Structure (SMILES): Cc1cc(-c2cc(N3CCN(c4ncccc4C(F)(F)F)CC3)nc(N3CCCCS3(=O)=O)n2)ccc1F [Example 685, 2-(4-(4-fluoro-3-methylphenyl)-6-{4-[3-(trifluoromethyl)pyridin-2-yl]piperazin-1-yl}pyrimidin-2-yl)-1,2-thiazinane 1,1-dioxide]

IC50 [3]: ≤ 1000 nM
Structure (SMILES): CC(C)c1cccc(-c2cc(N3CCN(c4ncccc4C(F)(F)F)C[C@H]3C)nc(N3CCOCC3)n2)c1 [Example 501, 4-(4-(3-isopropylphenyl)-6-{(2R)-2-methyl-4-[3-(trifluoromethyl)pyridin-2-yl]piperazin-1-yl}pyrimidin-2-yl)morpholine]

— US7566712B2, “Biaryl piperazinyl-pyridine analogues” (Neurogen Corporation, priority 2003, dated 2009)
